pIC50: −log10 of the molar value.
Biological target: Protein kinase C alpha type (Homo sapiens, UniProt P17252)
Assay: Inhibition of human recombinant PKCalpha

SMILES	pIC50
O=C(/C=C/c1ccc(O)c(O)c1)OC[C@H]1O[C@@H](OCCc2ccc(O)c(O)c2)[C@H](O)[C@@H](O[C@@H]2O[C@H](CO)[C@@H](O)[C@H](O)[C@H]2O)[C@@H]1O [PLANTAINOSIDE D]	4.83
C[C@@H]1O[C@@H](OC[C@H]2O[C@@H](OCCc3ccc(O)c(O)c3)[C@H](O)[C@@H](O)[C@@H]2OC(=O)/C=C/c2ccc(O)c(O)c2)[C@H](O)[C@H](O)[C@H]1O [FORSYTHIASIDE]	5.72
C[C@@H]1O[C@@H](O[C@@H]2[C@@H](O)[C@H](OCCc3ccc(O)c(O)c3)O[C@H](CO)[C@H]2OC(=O)/C=C/c2ccc(O)c(O)c2)[C@H](O)[C@H](O)[C@H]1O [ACETOSIDE]	5.03
C[C@@H]1O[C@@H](OC[C@H]2O[C@@H](OCCc3ccc(O)c(O)c3)[C@H](O)[C@@H](O[C@@H]3O[C@@H](C)[C@H](O)[C@@H](O)[C@H]3O)[C@@H]2OC(=O)/C=C/c2ccc(O)c(O)c2)[C@H](O)[C@H](O)[C@H]1O [POLIUMOSIDE]	4.61
O=C(/C=C/c1ccc(O)c(O)c1)OC[C@H]1O[C@@H](OCCc2ccc(O)c(O)c2)[C@H](O)[C@@H](O)[C@@H]1O [CALCEOLARIOSIDE B]	5.34
O=C(/C=C/c1ccc(O)c(O)c1)O[C@H]1[C@H](O)[C@@H](O)[C@H](OCCc2ccc(O)c(O)c2)O[C@@H]1CO [CALCEOLARIOSIDE A]	6.22
COc1cc(/C=C/C(=O)O[C@H]2[C@H](O[C@@H]3O[C@@H](C)[C@H](O)[C@@H](O)[C@H]3O)[C@@H](O)[C@H](OCCc3ccc(O)c(O)c3)O[C@@H]2CO)ccc1O [LEUCOSCEPTOSIDE A]	4.72
COc1ccc(CCO[C@@H]2O[C@H](CO[C@@H]3O[C@@H](C)[C@H](O)[C@@H](O)[C@H]3O)[C@@H](OC(=O)/C=C/c3ccc(O)c(OC)c3)[C@H](O[C@@H]3O[C@@H](C)[C@H](O)[C@@H](O)[C@H]3O)[C@H]2O)cc1O	3.90
